According to patent US20170298437A1, “METHODS AND USES RELATED TO RHABDOID TUMORS” (The Hospital For Sick Children, priority 2016, published 2017):
“Also recorded” adds a separate entry of the source.

Tests used:
ATRT cell lines = test: MTS cell viability screen of epigenetic probes on the whole ATRT cell line panel (4 group 1 and 4 group 2); assay type: cell-based, human; conditions: 4 group 1 and 4 group 2 cell lines, varying doses
From the text: Recent studies have reported promising therapeutic agents targeting a number of epigenetic and signaling pathways in ATRTs (Ginn and Gajjar, 2012), however the relevance of these agents to ATRT sub-types is unknown as these prior studies have examined a very limited number of cell lines. To identify additional ATRT sub-group specific pathways/targets, the effects of 12 small molecule inhibitors/chemical probes targeting epigenetic pathways on growth of 4 group 1 (CHLA266, CHLA04, 02, 05) and 4 group 2 ATRT (SH, CHLA06, BT16 and BT12) cell lines (FIG. 18A) were tested.
(§1) ATRT cell line CHLA02 (ATCC, Cat #CRL-3020), CHLA04 (ATCC, Cat #CRL-3036) were cultured according to the manufacturer's protocol. CHLA05 and CHLA06 cells, which were derived from primary ATRTs by Dr. Anat Erdreich-Epstein from the Children's Hospital of Los Angeles, were cultured in DMEM/F12 supplemented with 20 ng/mL FGF, 20 ng/mL EGF, and 1× B27 supplement. SH cells were obtained from Dr. Shih Hwa Choiu at Taipei Veterans General Hospital and was cultured as previously described (Kao et al., 2005). BT12 and BT16, which were kind gifts from Dr. Peter Houghton at Nationalwide Children's Hospital, were cultured in RPMI-1640 supplemented with 10% FBS. ATRT 78C cells was established from a corresponding primary ATRT (T13; diagnosed at The Hospital for Sick Children) and cultured in Neurobasal medium supplemented with 75 ng/mL BSA, 10 ng/mL FGF1, 10 ng/mL EGF, 2 ug/mL Heparin, 1× B27 and 1× N2 supplements. CHLA266 was grown in IMEM media with 10% FBS and 1× ITS. G401 (ATCC, Cat #CRL-1441) was grown in McCoy's 5A media with 10% FBS.
(§2) To assess effects of NOTCH and BMP signaling on ATRT cell phenotypes, cells were treated with N-[N-(3,5-Difluorophenacetyl)-L-alanyl]-S-phenylglycine t-butyl ester (DAPT; EMD Chemicals, Germany, Cat #565770) or Dorsomorphin (DM; Sigma-Aldrich, USA, Cat #P5499) and analyzed using MTS assays for cell viability. […] For epigenomic drug screening experiments, conditions were set up identically with the exception of absorbance readings being taken at 3 and 7 days post-treatment. Cell viability was determined based on mean cell absorbance at 492 nm.

group 1 ATRT cell lines = test: MTS cell viability assay on group 1 ATRT cell lines; assay type: cell-based, human; conditions: for growth inhibitory effects / sensitivity: epigenetic inhibitors
Protocol: as §1, §2

[1] = tested on: G401, a cell line derived from a renal rhabdoid tumor; test: Growth of G401 renal rhabdoid tumor cell line; assay type: cell-based, human; conditions: data not shown
Protocol: as §1

group 2 ATRT cell lines = test: MTS cell viability assay on group 2 ATRT cell lines; assay type: cell-based, human; conditions: for changes in growth / sensitivity: group 2 cell lines (SH, CHLA06, BT16, BT12), epigenetic inhibitors
Protocol: as §1, §2

[2] = cited from earlier work
[3] = tested on: group 1 (CHLA02) ATRT cell line; test: TUNEL assay in group 1 ATRT cell line; assay type: cell-based, human
Protocol: TUNEL assays were performed using in situ cell death detection kit, Fluorescein, according to manufacturer's instructions (Roche, West Sussex, UK). Pictures were taken at 20× magnification. Percentage of TUNEL positive population was calculated with respect to DAPI-positive cells, in five random fields per cell cultured slide, and averaged as representative population. Fold-changes were obtained by comparing with untreated control. Cell migration and invasive phenotypes of ATRT cell lines was assessed using a Transwell Boyden chamber assay according to manufacturer's instructions (BD Science). In brief, 3.5×10^3 cells were seeded onto membranes with 8 μm pores in Boyden chambers, and incubated at 37° C. Membranes were removed after 18 hours and examined at 10× magnification under the microscope. To enumerate the number of cells that had invaded and migrated, cell counts from five random fields on the membrane was used to estimate the total number of cells migrated across the transwell membrane.

NOTCH signaling = test: Western blot and qRT-PCR analyses of NOTCH signaling in group 1 ATRT cell lines; assay type: cell-based, human; conditions: group 1 cell lines 78C, CHLA02, CHLA05
Protocol: Nuclear and whole cell lysates were prepared using cytosol lysis buffer or nuclear buffer F (Sommer et al., 1998) respectively and immunoblotted with antibodies to SMARCB1/BAF47 (BD Biosciences, USA, Cat #612110), cleaved NOTCH1 (Cell Signaling, USA, Cat #2421S), pSMAD1/5 (Cell Signaling, USA, Cat #95165), SMAD1 (Cell Signaling, USA, Cat #9743S) or a-Tubulin (Sigma-Aldrich, USA, Cat #T9026) as per standard methods. Phospho-PDGFRβ P70 was obtained from Santa Cruz Biotechnology (Santa Cruz, Calif. USA, Cat #sc-12909-R). BAF47 immuno-staining of tumor samples was performed by the Hospital for Sick Children Pathology Department (Toronto, ON, Canada) as per standard clinical protocols.
cDNAs were synthesized from high quality RNA using the High Capacity cDNA Reverse Transcription Kit (Applied Biosystem, Cat #4368814) as per the manufacturer's instructions and qRT-PCR analyses were performed using purchased Taqman probes and the TaqMan® Gene Expression Master Mix (Invitrogen) (BAMBI, SOST, BCR [exon2, 8, 16, 18, 21, 23], RGL4, CHCHD10, MMP11, SMARCB1 [exon 2, 5]). A subset of analyses was performed with Platinum SYBR Green qPCR reagent kit (Invitrogen) as per the manufacturer's protocol with in-house designed primers to amplify invariant exons (HES1, HES5). […] Synthesized cDNA were analysed with gene specific probes using the Platinum SYBR green qPCR reagent kit. […]

## O=C(/C=C/c1ccc(CN(CCO)CCc2c[nH]c3ccccc23)cc1)NO [LAQ824]
ATRT cell lines
  effect on ATRT cell growth across sub-groups: significantly diminished growth of all cell lines; also recorded: no sub-type specific effects

## Cc1cn(-c2cc(NC(=O)c3ccc(C)c(Nc4nccc(-c5cccnc5)n4)c3)cc(C(F)(F)F)c2)cn1 [Nilotinib]
Group 1 ATRT cell lines; group 1 ATRT cell lines, MTS, 5 days
  growth / sensitivity to tyrosine kinase inhibitor: resistant
[1]
  growth of G401: robustly inhibit the growth
Group 2 ATRT cell lines; group 2 ATRT cell lines, MTS, 5 days
  growth / sensitivity to tyrosine kinase inhibitor: robustly diminished growth; also recorded: sensitive

## Cc1nc(Nc2ncc(C(=O)Nc3c(C)cccc3Cl)s2)cc(N2CCN(CCO)CC2)n1 [Dasatinib]
[2]
  blood brain permeability: demonstrated blood brain permeability

## C[C@H](NC(=O)Cc1cc(F)cc(F)c1)C(=O)N[C@H](C(=O)OC(C)(C)C)c1ccccc1 [DAPT, N-[N-(3,5-difluorophenacetyl)-L-alanyl]-S-phenylglycine t-butyl ester]
[3]
  cell death / apoptosis (TUNEL): increased cell death; also recorded: induced apopotosis
NOTCH signaling; Western blot, increasing doses
  NICD expression: dose dependent decrease in NICD expression
NOTCH signaling; qRT-PCR, four days post-treatment
  NOTCH transcriptional targets, HES1 and HESS: downregulation
Group 1 ATRT cell lines; group 1 (78C, CHLA05, CHLA02), DAPT or DM, varying doses, days 1-5, relative to DMSO
  cell line growth (cell viability, MTS): inhibited group 1 and 2 ATRT cell line growth in a dose dependent manner; also recorded: sensitive
Group 2 ATRT cell lines; group 2A/B (SH, CHLA06, BT16), DAPT or DM, varying doses, days 1-5, relative to DMSO
  cell line growth (cell viability, MTS): no significant effects on cell growth; also recorded: largely insensitive

## CCCc1cc(C)[nH]c(=O)c1CNC(=O)c1cc(-c2ccc(N3CCN(C(C)C)CC3)nc2)cc2c1cnn2C(C)C [UNC1999]
Group 1 ATRT cell lines; group 1 ATRT cell lines, MTS
  growth inhibitory effects / sensitivity: growth inhibitory effects were observed only in group 1 ATRT cell lines
ATRT cell lines
  effect on ATRT cell growth across sub-groups: sub-group specific effect
Group 2 ATRT cell lines; varying doses, MTS
  changes in growth / sensitivity: 3 of the 4 group 2 cell lines showed no changes in growth and largely insensitive

## COc1cc2c(NC3CCN(C(C)C)CC3)nc(C3CCCCC3)nc2cc1OCCCN1CCCC1 [UNC0638]
Group 1 ATRT cell lines; group 1 ATRT cell lines, MTS
  growth inhibitory effects / sensitivity: only group 1 ATRT cell lines were sensitive
ATRT cell lines
  effect on ATRT cell growth across sub-groups: sub-group specific effect
Group 2 ATRT cell lines; varying doses, MTS
  changes in growth / sensitivity: 3 of the 4 group 2 cell lines showed no changes in growth and largely insensitive

## Cc1sc2c(c1C)C(c1ccc(Cl)cc1)=N[C@@H](CC(=O)OC(C)(C)C)c1nnc(C)n1-2 [JQ1, (S)-tent-butyl 2-(4-(4-chlorophenyl)-2,3,9-trimethyl-6H-thieno[3,2-f][1,2,4]triazolo[4,3-a][1,4]diazepin-6-yl)acetate]
Group 1 ATRT cell lines; group 1 ATRT cell lines, MTS
  growth inhibitory effects / sensitivity: growth inhibitory effects were observed only in group 1 ATRT cell lines
ATRT cell lines
  effect on ATRT cell growth across sub-groups: sub-group specific effect
Group 2 ATRT cell lines; varying doses, MTS
  changes in growth / sensitivity: 3 of the 4 group 2 cell lines showed no changes in growth
